# From PubChem BioAssay (NCI)
#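 Interpolation was linear, between the two tested concentrations surrounding the appropriate level; five concentrations were tested over 48 hours in 96-well plates. At the TGI there is no net growth.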 Where a SMILES comes first, the peptide text is derived from it. The star is where a group is joined. Boc = CC(C)(C)OC(=O)*; Bn = c1ccc(C*)cc1
# Experiments:
# Assay in all cases: growth of human tumour cells (NCI), 48 h
# [1] = system: ACHN renal
# [2] = system: BT-549 breast
# [3] = system: EKVX NSCLC
# [4] = system: HCC-2998 colon
# [5] = system: KM12 colon
# [6] = system: LOX IMVI melanoma
# [7] = system: M14 melanoma
# [8] = system: NCI-H460 lung
# [9] = system: SF-268 CNS
# [10] = system: SF-295 CNS
# [11] = system: TK-10 renal
# [12] = system: UACC-257 melanoma
# [13] = system: T-47D breast
Compound,TGI [1] [µM],TGI [2] [µM],TGI [3] [µM],TGI [4] [µM],TGI [5] [µM],TGI [6] [µM],TGI [7] [µM],TGI [8] [µM],TGI [9] [µM],TGI [10] [µM],TGI [11] [µM],TGI [12] [µM],TGI [13] [µM]
CC[C@H]1C=CCC[C@@]2(C[C@@H]3CC[C@H]4[C@@H](C(=O)OCCCCCCCCCCCCCCCC(=O)N(CCCNC(C)=O)C[C@H](CCNC(C)=O)OC(C)=O)[C@@]5(CCC[C@@H](C)O5)NC(=[N+]34)N2)O1,3.3,3.5,2.09,2.62,2.67,3.16,3.24,3.25,3.38,3.32,2.99,2.68,
Cc1ccc2nc(-c3ccc(-c4nc5ccc(C)cc5o4)c(O)c3)oc2c1,> 100,,,> 100,,> 100,> 100,> 100,> 100,,> 100,,> 100
Cn1nc(S(N)(=O)=O)s/c1=N/S(=O)(=O)c1ccc(N)cc1,> 100,> 100,> 100,> 100,> 100,,> 100,> 100,> 100,> 100,> 100,,
CCOC(=O)CNC(=O)CNC(=O)CNC(=O)CNNc1c(OCc2ccccc2)c(=O)c1=O,> 100,> 100,> 100,> 100,> 100,,> 100,,> 100,,> 100,> 100,> 100
Oc1ccccc1-c1n[nH]c(-c2ccccc2O)n1,> 100,> 100,> 34,> 96.7,> 100,> 100,> 100,> 100,> 100,> 100,> 100,,78.5
Brc1ccc(N=Nc2ccc3ccccc3n2)cc1,31.2,60.5,> 100,,> 100,,> 100,26.4,94,> 100,56.6,> 100,> 100
[O-]/[N+](=N/c1ncc(-c2ccccc2)cn1)c1ncc(-c2ccccc2)cn1,> 100,,> 100,> 100,> 100,> 100,> 100,> 100,> 100,> 100,> 100,> 100,> 100
COc1cccc(N2C(=O)C3c4[nH]c5ccc(C)cc5c4C4CCC(C)CC4C3C2=O)c1 (stereo unspecified),> 100,> 100,> 100,> 100,,> 100,> 100,> 100,> 100,> 100,> 100,> 100,
Cc1cc(C)nc(NS(=O)(=O)c2ccc(Nc3nnc(/C=C/c4c(O)ccc5ccccc45)c(=O)n3N)cc2)n1,53.8,62.5,78.5,,,,58.5,,> 100,> 100,,,51.5
O=C(Nc1ccccc1[N+](=O)[O-])C(=O)C(C(=O)c1ccccc1-c1ccccc1)C1OC(=O)c2ccccc21 (stereo unspecified),> 100,,51,28.2,30.6,36,28.9,30.7,41,39.3,47.1,33,
CC1(C)CC2C(/C1=N/O)C1(C)CCCC2(C)C1O (stereo unspecified),> 100,> 100,> 100,,> 100,> 100,> 100,> 100,> 100,> 100,> 100,> 100,> 100
C/C(=C(/C)c1cc[n+](C)cc1)c1cc[n+](C)cc1,> 75,,> 75,,> 75,> 75,> 75,> 75,> 75,> 75,> 75,> 75,
C=CCN(N=O)C(=O)N(CCCCC(NC(C)=O)C(=O)NCc1ccccc1)Cc1ccccc1 (stereo unspecified),> 100,,> 100,,> 100,55.3,62.4,> 100,> 100,> 100,> 100,> 100,
Cc1ccc(S(=O)(=O)NC(=O)NCC(N)=O)cc1,> 100,> 100,,,> 100,> 100,> 100,> 100,> 100,> 100,> 100,> 100,> 100
O=C(NN1C(=O)C(Cl)C1c1cccc(Cl)c1)c1ccccc1O (stereo unspecified),> 100,,,,> 100,> 100,> 100,> 100,> 100,> 100,> 100,> 100,
N#CCN1CCN(CC#N)CCN(CC#N)CCN(CC#N)CC1,> 100,> 100,,> 100,> 100,> 100,> 100,> 100,> 100,> 100,> 100,> 100,> 100
C=CC[C@@]12CCC(=O)C=C1CCCC2=O,> 100,,> 100,> 100,,> 100,> 100,> 100,> 100,> 100,> 100,> 100,> 100
Cc1ncc([N+](=O)[O-])n1CCNC(=O)Cn1ccnc1[N+](=O)[O-],> 100,> 100,,> 100,> 100,,> 100,> 100,> 100,> 100,> 100,> 100,> 100
CN1C(=O)C(C#N)C2C[C@@]1(C)Oc1ccccc12 (stereo partly specified),> 100,> 100,> 100,> 100,> 100,> 100,> 100,> 100,> 100,> 100,> 100,> 100,

Compound,TGI [1] [µM],TGI [2] [µM],TGI [3] [µM],TGI [4] [µM],TGI [5] [µM],TGI [6] [µM],TGI [7] [µM],TGI [8] [µM],TGI [9] [µM],TGI [10] [µM],TGI [11] [µM],TGI [12] [µM],TGI [13] [µM]
CC(=O)c1c2c(cc3c1CC1(C3)Cc3cc4c(c(C(C)=O)c3C1)CCCC4)CCCC2,> 100,,> 100,> 100,> 100,> 100,> 100,,,> 100,> 100,> 100,> 100
CNC(=O)OCc1nc(N=[N+]=[N-])n(C)c1COC(=O)NC,> 100,> 10,> 100,> 100,> 100,> 100,,> 100,> 100,> 100,> 100,> 100,
C/C(CC(=O)Nc1ccccc1)=N\NC(N)=S,,,> 100,> 100,> 100,> 100,> 100,> 100,> 100,> 100,> 100,> 100,
CC1(C)N([O-])[N+](=O)C1(Br)c1ccccc1 (stereo unspecified),> 100,,> 100,> 100,> 100,> 100,> 100,> 100,> 100,> 100,> 100,> 100,> 100
CC1CN=C(NS(=O)(=O)c2cc(C(=O)Nc3ccccc3)c(Cl)cc2S)NN1 (stereo unspecified),> 100,> 100,> 100,> 100,> 100,> 100,> 100,> 100,> 100,> 100,> 100,> 100,
COC(=O)/C=C1/OC(c2ccc(C)cc2C)=CC1=O,29.3,29.9,> 100,30.5,31.8,17.6,31.1,36.5,48.9,,31.3,,38.4
CC(=O)OC1CC2C(C)(C)OC(=O)CC(OC(C)=O)[C@]2(C)C2CCC3(C)C(=CCC3c3ccoc3)[C@]12C (stereo partly specified),> 100,,> 100,52.4,> 100,> 100,46.5,> 100,> 100,98.3,> 100,,
O=C1COc2cc3c(cc2N1)SCCC(=O)N3,,,> 100,> 100,> 100,,> 100,,> 100,> 100,> 100,> 100,
CC(C)(C)OC(=O)NC(Cc1ccc(OCc2ccccc2)cn1)C(=O)O (stereo unspecified),> 100,> 100,> 100,> 100,> 100,> 100,,> 100,> 100,> 100,> 100,> 100,
O=c1[nH]c2cc3[nH]c(=O)c(=O)[nH]c3cc2[nH]c1=O,> 100,> 100,> 100,> 100,> 100,> 100,> 100,> 100,> 100,> 100,> 100,> 100,
CC(C)(C)OC(=O)NC(Cc1ccc(OCc2ccccc2)cn1)C(N)=O (stereo unspecified),> 100,> 100,> 100,> 100,> 100,> 100,,> 100,> 100,> 100,> 100,> 100,
COc1ccc(C(c2cc(OC)c(OC)c(OC)c2)N2C(=O)CCC2C(=O)O)cc1 (stereo unspecified),> 100,,> 100,> 100,> 100,> 100,> 100,> 100,> 100,66.4,> 100,> 100,> 100
COC(=O)C1Cc2c([nH]c3ccccc23)-c2[nH]c3ccccc3c2CC(NC(C)=O)C(=O)NCC(=O)NCC(=O)N1 (stereo unspecified),> 100,> 100,> 100,,> 100,> 100,> 100,> 100,> 100,> 100,> 100,> 100,> 100
O=c1[nH]cc(COCC(O)CO)c(=O)[nH]1 (stereo unspecified),> 100,,> 100,,> 100,> 100,> 100,> 100,> 100,> 100,> 100,> 100,
O=[N+]([O-])c1cc2ccc1OCc1cccc(n1)COc1ccc(cc1[N+](=O)[O-])C=NCCCCCCCCN=C2,> 100,> 100,> 100,> 100,> 100,> 100,> 100,> 100,> 100,> 100,> 100,> 100,
COC(=O)C(CC(C)C)NC(=O)CNC(=O)C(Cc1ccc(OCc2ccccc2)cc1)NC(=O)C(COCc1ccccc1)NC(=O)OC(C)(C)C (stereo unspecified) (Boc-S(Bn)Y(Bn)GL-OMe; configuration not given here),> 100,> 100,> 100,,> 100,> 100,> 100,> 100,> 100,> 100,> 100,,> 100
Oc1ccc2ccccc2c1NCn1nc(CCCCCCCCc2nn(CNc3c(O)ccc4ccccc34)c(=S)o2)oc1=S,> 100,> 100,> 100,> 100,> 100,,> 100,> 100,> 100,> 100,> 100,> 100,
Cn1c(-c2cccs2)cc(-c2ccsc2)c1-c1cccs1,> 100,> 100,> 100,> 100,> 100,,> 100,> 100,> 100,> 100,> 100,> 100,73.2
O=C(/C=N/O)Nc1ccc(Cl)c(I)c1,85.2,,63.9,33.7,68.3,31.4,43.7,47.2,69.2,94.8,> 100,> 100,
